The source of these data is patent US20240246964A1 (Arbutus Biopharma Corporation, priority 2021, published 2024).

Assay [1] deals with PD-L1 His protein / PD-1 Fc protein (Homo sapiens (Human), UniProt Q9NZQ7). The experiment in a line: HTRF Assay (PD-1/PD-L1 interaction). It counts as binding. The settings on record: PD-L1 His 6 nM, PD-1 Fc 6 nM.
In assay [2] the target is human PD-L1 (Homo sapiens (Human), UniProt Q9NZQ7). The assay can be described thus: T cell activation luciferase reporter cell culture system (T Cell Activation Assay). It counts as cell-based. The settings on record: luciferase reporter assay; PD-L1 aAPC/CHO-K1 cells with PD-1 effector Jurkat T cells.
human PD-L1, sequence (Q9NZQ7 19-290): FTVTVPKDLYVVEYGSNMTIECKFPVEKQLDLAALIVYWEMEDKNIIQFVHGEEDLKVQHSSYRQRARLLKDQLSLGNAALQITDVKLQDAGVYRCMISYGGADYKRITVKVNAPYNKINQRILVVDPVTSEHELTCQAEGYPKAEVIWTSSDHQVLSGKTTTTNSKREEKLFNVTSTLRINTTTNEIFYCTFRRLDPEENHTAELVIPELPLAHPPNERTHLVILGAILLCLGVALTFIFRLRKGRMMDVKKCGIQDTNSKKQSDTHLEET

PD-L1 His protein / PD-1 Fc protein, sequence (Q9NZQ7 19-238): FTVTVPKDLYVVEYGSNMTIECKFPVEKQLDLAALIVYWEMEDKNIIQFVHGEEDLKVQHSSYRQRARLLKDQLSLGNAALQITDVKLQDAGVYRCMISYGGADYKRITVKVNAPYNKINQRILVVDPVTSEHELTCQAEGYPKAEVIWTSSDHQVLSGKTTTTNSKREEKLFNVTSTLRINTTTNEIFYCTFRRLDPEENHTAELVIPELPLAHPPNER

The compound `COc1nc(-c2cccc(-c3ccnc(-c4ccc5c(CNC6CN(C(C)=O)C6)cn(C)c5c4)c3Cl)c2Cl)ccc1CNC[C@@H]1CCC(=O)N1` [Compound 55, (S)-5-((((6-(3-(2-(3-(((1-acetylazetidin-3-yl)amino)methyl)-1-methyl-1H-indol-6-yl)-3-chloropyridin-4-yl)-2-chlorophenyl)-2-methoxypyridin-3-yl)methyl)amino)methyl)pyrrolidin-2-one] came in with an IC50 in assay [1] of 4.9 nM. In addition, in assay [2], it took 127 nM to reach a half-maximal effect (EC50).
`COc1nc(-c2cccc(-c3ccnc(-c4ccc5c(CN(C)C6CCN(C(C)=O)CC6)cn(C)c5c4)c3Cl)c2Cl)ccc1CNC[C@@H]1CCC(=O)N1` [Compound 56, (S)-5-((((6-(3-(2-(3-(((1-acetylpiperidin-4-yl)(methyl)amino)methyl)-1-methyl-1H-indol-6-yl)-3-chloropyridin-4-yl)-2-chlorophenyl)-2-methoxypyridin-3-yl)methyl)amino)methyl)pyrrolidin-2-one] came in with an IC50 in assay [1] of 4 nM. Further, a half-maximal response in assay [2] (EC50) required 36.8 nM.
`COc1nc(-c2cccc(-c3ccnc(-c4ccc5c(c4)CN(CCNC[C@@H]4CCC(=O)N4)C5=O)c3Cl)c2Cl)ccc1CNC[C@@H]1CCC(=O)N1` [Compound 66, 5-(3-chloro-4-(2-chloro-3-(6-methoxy-5-(((((S)-5-oxopyrrolidin-2-yl)methyl)amino)methyl)pyridin-2-yl)phenyl)pyridin-2-yl)-2-(2-((((S)-5-oxopyrrolidin-2-yl)methyl)amino)ethyl)isoindolin-1-one]: the midpoint of inhibition in assay [1], the IC50, lay at 0.6 nM. In addition, a half-maximal response in assay [2] (EC50) required 158 nM.
In turn, `COc1nc(-c2cccc(-c3ccnc(-c4ccc5c(CNC6CCC(F)(F)CC6)cn(C)c5c4)c3Cl)c2Cl)ccc1CNC[C@@H]1CCC(=O)N1` [Compound 73, (S)-5-((((6-(2-chloro-3-(3-chloro-2-(3-(((4,4-difluorocyclohexyl)amino)methyl)-1-methyl-1H-indol-6-yl)pyridin-4-yl)phenyl)-2-methoxypyridin-3-yl)methyl)amino)methyl)pyrrolidin-2-one] showed a half-inhibitory concentration (IC50) in assay [1] of 0.9 nM. Moreover, the response in assay [2] was half-maximal at 184 nM (EC50).
`COc1nc(-c2cccc(-c3ccnc(-c4cc5c(=O)n(C)c(CN[C@H]6C[C@](C)(O)C6)nn5c4)c3Cl)c2Cl)cc(Cl)c1CNC[C@@H]1CCC(=O)N1` [Compound 87, 6-(3-chloro-4-(2-chloro-3-(4-chloro-6-methoxy-5-(((((S)-5-oxopyrrolidin-2-yl)methyl)amino)methyl)pyridin-2-yl)phenyl)pyridin-2-yl)-2-((((1r,3r)-3-hydroxy-3-methylcyclobutyl)amino)methyl)-3-methylpyrrolo[2,1-f][1,2,4]triazin-4(3H)-one] yielded an IC50 in assay [1] of 3 nM. This compound also yielded an EC50 in assay [2] of 312 nM.
For `COc1nc(-c2cccc(-c3ccnc(-c4cc5c(=O)n(C)c(CNC[C@H](C)O)nn5c4)c3Cl)c2Cl)ccc1CNC[C@@H]1CCC(=O)N1` [Compound 91, 6-(3-chloro-4-(2-chloro-3-(6-methoxy-5-(((((S)-5-oxopyrrolidin-2-yl)methyl)amino)methyl)pyridin-2-yl)phenyl)pyridin-2-yl)-2-((((S)-2-hydroxypropyl)amino)methyl)-3-methylpyrrolo[2,1-f][1,2,4]triazin-4(3H)-one] the same measures were 4.4 nM and 221 nM.
Take `CNCc1cn(C)c2nc(-c3cccc(-c4ccnc(-c5ccc(CNC[C@@H]6CCC(=O)N6)c(OC)c5)c4Cl)c3Cl)ccc12` [Compound 94, (S)-5-(((4-(3-chloro-4-(2-chloro-3-(1-methyl-3-((methylamino)methyl)-1H-pyrrolo[2,3-b]pyridin-6-yl)phenyl)pyridin-2-yl)-2-methoxybenzyl)amino)methyl)pyrrolidin-2-one]: in assay [1], the IC50 was determined as 0.5 nM. This compound also yielded an EC50 in assay [2] of 47.5 nM.
The compound `COc1cc(-c2nccc(-c3cccc(-c4ccc5c(CNC6CN(C(C)=O)C6)cn(C)c5n4)c3Cl)c2Cl)ccc1CNC[C@@H]1CCC(=O)N1` [Compound 95, (S)-5-(((4-(4-(3-(3-(((1-acetylazetidin-3-yl)amino)methyl)-1-methyl-1H-pyrrolo[2,3-b]pyridin-6-yl)-2-chlorophenyl)-3-chloropyridin-2-yl)-2-methoxybenzyl)amino)methyl)pyrrolidin-2-one] registered an IC50 in assay [1] of 0.6 nM. In assay [2], this compound registered an EC50 of 104 nM.
Take `COc1cc(-c2nccc(-c3cccc(-c4ccc5c(CNC6CCC(F)(F)CC6)cn(C)c5n4)c3Cl)c2Cl)ccc1CNC[C@@H]1CCC(=O)N1` [Compound 96, (S)-5-(((4-(3-chloro-4-(2-chloro-3-(3-(((4,4-difluorocyclohexyl)amino)methyl)-1-methyl-1H-pyrrolo[2,3-b]pyridin-6-yl)phenyl)pyridin-2-yl)-2-methoxybenzyl)amino)methyl)pyrrolidin-2-one]: it took 0.6 nM to reach half-maximal inhibition in assay [1] (IC50). In addition, in assay [2], the EC50 is 230 nM.
For `COc1cc(-c2nccc(-c3cccc(-c4ccc5c(CNCCO)cn(C)c5n4)c3Cl)c2Cl)ccc1CNC[C@@H]1CCC(=O)N1` [Compound 97, (S)-5-(((4-(3-chloro-4-(2-chloro-3-(3-(((2-hydroxyethyl)amino)methyl)-1-methyl-1H-pyrrolo[2,3-b]pyridin-6-yl)phenyl)pyridin-2-yl)-2-methoxybenzyl)amino)methyl)pyrrolidin-2-one] the same measures were 0.5 nM and 28.3 nM.
The compound `COc1cc(-c2nccc(-c3cccc(-c4ccc5c(CNC[C@H](C)O)cn(C)c5n4)c3Cl)c2Cl)ccc1CNC[C@@H]1CCC(=O)N1` [Compound 98, (S)-5-(((4-(3-chloro-4-(2-chloro-3-(3-((((S)-2-hydroxypropyl)amino)methyl)-1-methyl-1H-pyrrolo[2,3-b]pyridin-6-yl)phenyl)pyridin-2-yl)-2-methoxybenzyl)amino)methyl)pyrrolidin-2-one] gave an IC50 in assay [1] of 0.7 nM. The same compound yielded an EC50 in assay [2] of 30.5 nM.
`COc1cc(-c2nccc(-c3cccc(-c4ccc5c(CNCC(C)(C)O)cn(C)c5n4)c3Cl)c2Cl)ccc1CNC[C@@H]1CCC(=O)N1` [Compound 99, (S)-5-(((4-(3-chloro-4-(2-chloro-3-(3-(((2-hydroxy-2-methylpropyl)amino)methyl)-1-methyl-1H-pyrrolo[2,3-b]pyridin-6-yl)phenyl)pyridin-2-yl)-2-methoxybenzyl)amino)methyl)pyrrolidin-2-one] gave a half-inhibitory concentration (IC50) in assay [1] of 0.7 nM. In assay [2], this compound gave a concentration giving a half-maximal response (EC50) of 47.8 nM.
For `COCCNCc1cn(C)c2nc(-c3cccc(-c4ccnc(-c5ccc(CNC[C@@H]6CCC(=O)N6)c(OC)c5)c4Cl)c3Cl)ccc12` [Compound 100, (S)-5-(((4-(3-chloro-4-(2-chloro-3-(3-(((2-methoxyethyl)amino)methyl)-1-methyl-1H-pyrrolo[2,3-b]pyridin-6-yl)phenyl)pyridin-2-yl)-2-methoxybenzyl)amino)methyl)pyrrolidin-2-one] the same measures were 0.9 nM and 59 nM.
`COc1cc(-c2nccc(-c3cccc(-c4ccc5c(CN(C)CCO)cn(C)c5n4)c3Cl)c2Cl)ccc1CNC[C@@H]1CCC(=O)N1` [Compound 101, (S)-5-(((4-(3-chloro-4-(2-chloro-3-(3-(((2-hydroxyethyl)(methyl)amino)methyl)-1-methyl-1H-pyrrolo[2,3-b]pyridin-6-yl)phenyl)pyridin-2-yl)-2-methoxybenzyl)amino)methyl)pyrrolidin-2-one] returned an IC50 in assay [1] of 0.5 nM. Also, the midpoint of the response in assay [2], the EC50, lay at 31 nM.
Turning to `COc1nc(-c2cccc(-c3ccnc(-c4cc5c(=O)n(C)c(CNC[C@@H]6CCC(=O)N6)nn5c4)c3Cl)c2Cl)ccc1CNC[C@@H]1CCC(=O)N1` [Compound 103, 6-(3-chloro-4-(2-chloro-3-(6-methoxy-5-(((((S)-5-oxopyrrolidin-2-yl)methyl)amino)methyl)pyridin-2-yl)phenyl)pyridin-2-yl)-3-methyl-2-(((((S)-5-oxopyrrolidin-2-yl)methyl)amino)methyl)pyrrolo[2,1-f][1,2,4]triazin-4(3H)-one], the IC50 in assay [1] was 0.7 nM. For the same compound, in assay [2], it took 304 nM to reach a half-maximal effect (EC50).
In assay [1], `COc1cc(-c2nccc(-c3cccc(-c4ccc(C5=NCCN5)c(OC)n4)c3Cl)c2Cl)ccc1C1=NCCN1` [Compound 106, 3-chloro-4-(2-chloro-3-(5-(4,5-dihydro-1H-imidazol-2-yl)-6-methoxypyridin-2-yl)phenyl)-2-(4-(4,5-dihydro-1H-imidazol-2-yl)-3-methoxyphenyl)pyridine] gave an IC50 of 1.4 nM. The compound further came in with an EC50 in assay [2] of 123 nM.
In assay [1], `COc1nc(-c2cccc(-c3ccnc(-c4cc5c(=O)n(C)c(CN6CC(C)(O)C6)nn5c4)c3Cl)c2Cl)ccc1CNC[C@@H]1CCC(=O)N1` [Compound 110, (S)-6-(3-chloro-4-(2-chloro-3-(6-methoxy-5-((((5-oxopyrrolidin-2-yl)methyl)amino)methyl)pyridin-2-yl)phenyl)pyridin-2-yl)-2-((3-hydroxy-3-methylazetidin-1-yl)methyl)-3-methylpyrrolo[2,1-f][1,2,4]triazin-4(3H)-one] yielded an IC50 of 0.9 nM. This compound returned an EC50 in assay [2] of 60.5 nM.
`COc1nc(-c2cccc(-c3ccnc(-c4cc5c(=O)n(C)c(CNC(C)C)nn5c4)c3Cl)c2Cl)ccc1CNC[C@@H]1CCC(=O)N1` [Compound 111, (S)-6-(3-chloro-4-(2-chloro-3-(6-methoxy-5-((((5-oxopyrrolidin-2-yl)methyl)amino)methyl)pyridin-2-yl)phenyl)pyridin-2-yl)-2-((isopropylamino)methyl)-3-methylpyrrolo[2,1-f][1,2,4]triazin-4(3H)-one] came in with an IC50 in assay [1] of 2.2 nM. For the same compound, in assay [2], the EC50 came to 263 nM.
On to `COc1cc(-c2nccc(-c3cccc(-c4ccc(CNC[C@@H]5CCC(=O)N5)c(OC)n4)c3Cl)c2Cl)cc(C)c1CNC[C@H](C)O` [Compound 114, (S)-5-((((6-(2-chloro-3-(3-chloro-2-(4-((((S)-2-hydroxypropyl)amino)methyl)-3-methoxy-5-methylphenyl)pyridin-4-yl)phenyl)-2-methoxypyridin-3-yl)methyl)amino)methyl)pyrrolidin-2-one], for which 0.9 nM corresponded to half-maximal inhibition in assay [1] (IC50). The same compound showed a concentration for a half-maximal effect (EC50) in assay [2] of 81.2 nM.
